Source: patent US20080280891A1, “Anti-cancer agents and uses thereof” (Locus Pharmaceuticals, Inc., priority 2006, published 2008)

Columns and labels:
[1] = test system: Jurkat T-cell leukemic cells; assay: Cell cycle assay (Example 163), G2/M block in Jurkat cells; format: cell-based; conditions: Homo sapiens, Jurkat, 24 h, flow cytometry (PI), Table 2
Procedure: (§1) MCF-7 breast cancer cells and Jurkat T-cell leukemic cells were grown (and maintained) in EMEM and RPMI media, respectively, containing 10% fetal calf serum.
Test agents were added a concentration of 0.1 μM. Twenty-fours after test agent addition, cells were analyzed for cell cycle status as described below.
(§2) Cell cycle status was analyzed by flow cytometry. Briefly, cells were collected and washed with FACs buffer (Pharmingen) and resuspended and fixed in 1 mL of 80% ethanol for 1 hr. Cells were washed with FACs buffer and resuspended in propidium iodide(PI)/RNase staining buffer (Pharmingen). PI is a fluorescent dye that labels nucleic acids such as DNA. The fluorescence within a cell (in the presence of PI) is proportional to the amount of DNA within a cell. The cell content of DNA is an indices of status in the cell cycle. […] Cells in the S phase have DNA content that lies between these extremes.
(§3) For testing of cell cycle effects of test agents the percentage of cells within the G1 and G2/M phase were measured.

[2] = test system: MCF-7 breast cancer cells; assay: Cell cycle assay (Example 163), G2/M block in MCF-7 cells; format: cell-based; conditions: Homo sapiens, MCF7, 24 h, flow cytometry (PI), Table 2
Procedure: as §1
Cells were allowed to adhere for 24 hrs. After adherence, cell culture media was changed to that containing 0.5% FCS. Thirty minutes post-media change, test compounds were added at a concentration of 1 μM. Twenty-fours after test agent addition, cells were analyzed for cell cycle status as described below.
as §2, §3

| Compound | activation at 0.1 µM [1] [%] | activation at 1 µM [2] [%] |
| --- | --- | --- |
| O=C(c1cccnc1)c1cc(-c2cccc3[nH]ccc23)cc(N2CCCC2=O)c1 [1-[3-(1H-Indol-4-yl)-5-(pyridine-3-carbonyl)-phenyl]-pyrrolidin-2-one] | < 50 | ≥ 50 |
| NC(=O)c1cc(Nc2cnccn2)cc(-c2cccc3[nH]ccc23)c1 [3-(1H-Indol-4-yl)-5-(pyrazin-2-ylamino)-benzamide] | < 50 | ≥ 50 |
| NC(=O)c1cc(Nc2cccnc2)cc(-c2cccc3[nH]ccc23)c1 [3-(1H-Indol-4-yl)-5-(pyridin-3-ylamino)-benzamide] | ≥ 50 | ≥ 50 |
| COC(=O)c1cc(Nc2cccnc2)cc(-c2cccc3[nH]ccc23)c1 [3-(1H-Indol-4-yl)-5-(pyridin-3-ylamino)-benzoic acid methyl ester] | ≥ 50 | ≥ 50 |
| Oc1cc(Nc2ccccc2)cc(-c2cccc3[nH]ccc23)c1 [3-(1H-Indol-4-yl)-5-phenylamino-phenol] | ≥ 50 | ≥ 50 |
| Oc1cc(Nc2cccnc2)cc(-c2cccc3c2OCO3)c1 [3-Benzo[1,3]dioxol-4-yl-5-(pyridin-3-ylamino)-phenol] | ≥ 50 | ≥ 50 |
| N#Cc1cc2c(-c3cc(O)cc(Nc4cccnc4)c3)cccc2[nH]1 [4-[3-Hydroxy-5-(pyridin-3-ylamino)-phenyl]-1H-indole-2-carbonitrile] | ≥ 50 | < 50 |
| N#Cc1ccc(Nc2cc(O)cc(-c3cccc4[nH]ccc34)c2)cn1 [5-[3-Hydroxy-5-(1H-indol-4-yl)-phenylamino]-pyridine-2-carbonitrile] | ≥ 50 | ≥ 50 |
| NC(=O)c1ccc(Nc2cc(O)cc(-c3cccc4[nH]ccc34)c2)cn1 [5-[3-Hydroxy-5-(1H-indol-4-yl)-phenylamino]-pyridine-2-carboxylic acid amide] | ≥ 50 | ≥ 50 |
| O=COCCOCc1ncccc1Nc1cc(O)cc(-c2cccc3[nH]ccc23)c1 [Formic acid 2-{3-[3-hydroxy-5-(1H-indol-4-yl)-phenylamino]-pyridin-2-ylmethoxy}-ethyl ester] | < 50 | ≥ 50 |
| COc1cc(C(=O)c2cc(NC(C)=O)cc(-c3cccc4[nH]ccc34)c2)ccn1 [N-[3-(1H-Indol-4-yl)-5-(2-methoxy-pyridine-4-carbonyl)-phenyl]-acetamide] | ≥ 50 | ≥ 50 |
| CS(=O)(=O)Nc1cc(Nc2cccnc2)cc(-c2cccc3[nH]ccc23)c1 [N-[3-(1H-Indol-4-yl)-5-(pyridin-3-ylamino)-phenyl]-methanesulfonamide] | < 50 | ≥ 50 |
| CC(=O)Nc1cc(SCc2cccnc2)cc(-c2cccc3[nH]ccc23)c1 [N-[3-(1H-Indol-4-yl)-5-(pyridin-3-ylmethylsulfanyl)-phenyl]-acetamide] | < 50 | ≥ 50 |
| CCC(=O)Nc1cc(C(=O)c2cccnc2)cc(-c2cccc3[nH]ccc23)c1 [N-[3-(1H-Indol-4-yl)-5-(pyridine-3-carbonyl)-phenyl]-propionamide] | < 50 | ≥ 50 |
| CC(=O)Nc1cc(-c2cccc3[nH]ccc23)cc(S(=O)(=O)c2cccnc2)c1 [N-[3-(1H-Indol-4-yl)-5-(pyridine-3-sulfonyl)-phenyl]-acetamide] | < 50 | ≥ 50 |
| CC(=O)Nc1cc(C(=O)c2ccncc2)cc(-c2cccc3[nH]ccc23)c1 [N-[3-(1H-Indol-4-yl)-5-(pyridine-4-carbonyl)-phenyl]-acetamide] | ≥ 50 | ≥ 50 |
| CS(=O)(=O)Nc1cc(C(=O)c2ccncc2)cc(-c2cccc3[nH]ccc23)c1 [N-[3-(1H-Indol-4-yl)-5-(pyridine-4-carbonyl)-phenyl]-methanesulfonamide] | ≥ 50 | ≥ 50 |
| CC(=O)Nc1cc(-c2nc3ncccc3o2)cc(-c2cccc3[nH]ccc23)c1 [N-[3-(1H-Indol-4-yl)-5-oxazolo[4,5-b]pyridin-2-yl-phenyl]-acetamide] | < 50 | ≥ 50 |
| Cc1cc(C(=O)c2cc(NS(C)(=O)=O)cc(-c3cccc4[nH]ccc34)c2)cc(Cl)n1 [N-[3-(2-Chloro-6-methyl-pyridine-4-carbonyl)-5-(1H-indol-4-yl)-phenyl]-methanesulfonamide] | ≥ 50 | ≥ 50 |
| CC(=O)Nc1cc(C(=O)c2ccnc(Cl)c2)cc(-c2cccc3[nH]ccc23)c1 [N-[3-(2-Chloro-pyridine-4-carbonyl)-5-(1H-indol-4-yl)-phenyl]-acetamide] | ≥ 50 | ≥ 50 |
| CS(=O)(=O)Nc1cc(C(=O)c2ccnc(Cl)c2)cc(-c2cccc3[nH]ccc23)c1 [N-[3-(2-Chloro-pyridine-4-carbonyl)-5-(1H-indol-4-yl)-phenyl]-methanesulfonamide] | ≥ 50 | ≥ 50 |
| CS(=O)(=O)Nc1cc(C(=O)c2cccnc2)cc(-c2cccc3[nH]c(C#N)cc23)c1 [N-[3-(2-Cyano-1H-indol-4-yl)-5-(pyridine-3-carbonyl)-phenyl]-methanesulfonamide] | ≥ 50 | ≥ 50 |
| CC(=O)Nc1cc(Br)cc(C(=O)c2cccnc2)c1 [N-[3-Bromo-5-(pyridine-3-carbonyl)-phenyl]-acetamide] | ≥ 50 | ≥ 50 |
| O=C(c1cccnc1)c1cc(-c2cccc3[nH]ccc23)ccc1O [[2-Hydroxy-5-(1H-indol-4-yl)-phenyl]-pyridin-3-yl-methanone] | ≥ 50 | ≥ 50 |
| COC(=O)Nc1cc(Nc2cccnc2)cc(-c2cccc3[nH]ccc23)c1 [[3-(1H-Indol-4-yl)-5-(pyridin-3-ylamino)-phenyl]-carbamic acid methyl ester] | < 50 | ≥ 50 |
| O=C(Nc1cc(C(=O)c2cccnc2)cc(-c2cccc3[nH]ccc23)c1)OCc1ccccc1 [[3-(1H-Indol-4-yl)-5-(pyridine-3-carbonyl)-phenyl]-carbamic acid benzyl ester] | < 50 | ≥ 50 |
| O=C(c1cccnc1)c1cc(O)cc(-n2ccc3cc(F)ccc32)c1 [[3-(5-Fluoro-indol-1-yl)-5-hydroxy-phenyl]-pyridin-3-yl-methanone] | ≥ 50 | ≥ 50 |
| COc1cc(C(=O)c2cc(N)cc(-c3cccc4[nH]ccc34)c2)ccn1 [[3-Amino-5-(1H-indol-4-yl)-phenyl]-(2-methoxy-pyridin-4-yl)-methanone] | ≥ 50 | ≥ 50 |
| COc1ccc(C(=O)c2cc(O)cc(-c3cccc4[nH]ccc34)c2)cn1 [[3-Hydroxy-5-(1H-Indol-4-yl)-phenyl]-(6-methoxy-pyridin-3-yl)-methanone] | ≥ 50 | ≥ 50 |
